Assays:
Sphaerotheca fuliginea = experiment: Sphaerotheca test (cucumber)/protective; details: cucumber plants, protective spray, 500 ppm active ingredient, evaluation 7 days after inoculation
Description: • Solvent: 49 parts by weight of N,N-dimethylformamide • Emulsifier: 1 part by weight of alkylaryl polyglycol ether
To produce an appropriate active ingredient formulation, 1 part by weight of active ingredient is mixed with the specified amounts of solvent and emulsifier, and the concentrate is diluted with water to the desired concentration. To test for protective activity, young cucumber plants are sprayed with the formulation of active ingredient at the stated application rate. 1 day after the treatment, the plants are inoculated with a spore suspension of Sphaerotheca fuliginea. The plants are then placed in a greenhouse at 70% relative air humidity and a temperature of 23° C. Evaluation follows 7 days after the inoculation.

[1] = logP by HPLC (EEC Directive 79/831 Annex V.A8); type: physicochemical; details: HPLC reversed-phase C18, method [a]: LC-MS, pH 2.7, 0.1% aqueous formic acid / acetonitrile, gradient 10% to 95% acetonitrile; for chromatographic logP: reversed-phase C18 HPLC column
[2] = system: Blumeria graminis f.sp. hordei; experiment: Blumeria graminis test (barley)/protective; type: in vivo; details: barley plants, protective spray, 500 ppm active ingredient, evaluation 7 days after inoculation
Leptosphaeria nodorum = Leptosphaeria nodorum test (wheat)/protective; type: in vivo; details: wheat plants, protective spray, 500 ppm active ingredient, evaluation 8 days after inoculation
Septoria tritici = Septoria tritici test (wheat)/protective; type: in vivo; details: wheat plants, protective spray, 500 ppm active ingredient, evaluation 21 days after inoculation
Puccinia triticina = Puccinia triticina test (wheat)/protective; type: in vivo; details: wheat plants, protective spray, 500 ppm active ingredient, evaluation 8 days after inoculation
Description: Evaluation follows 8 days after the inoculation.

Row | SMILES | efficacy (Sphaerotheca fuliginea) [%] | logP [1] | further results
1 | CC(CF)(CF)C(O)(COc1ccc(I)cc1)c1cncs1 (centres unmarked) [Compound 4] | 100 |  | chromatographic logP [1]: 3.16; efficacy [2]: 100%; efficacy (Leptosphaeria nodorum): 100%; efficacy (Septoria tritici): 100%; efficacy (Puccinia triticina): 100%
2 | CC(C)(C)C(O)(CCc1ccc(Cl)cc1)c1cncs1 (centres unmarked) [Compound 5] | 100 |  | 
3 | CC(C)(C)C(O)(CCc1ccc(SC(F)(F)F)cc1)c1cncs1 (centres unmarked) [Compound 6] | 100 |  | 
4 | OC(Cc1ccccc1Cl)(c1cncs1)C1(Cl)CC1 (centres unmarked) [Compound 7] | 83 |  | 
5 | CC(CF)(CF)C(O)(COc1ccc(Br)cc1)c1cncs1 (centres unmarked) [Compound 8] | 94 | logP 3.02^[a]; [M + H]^+ = 392/394. | efficacy [2]: 89%
6 | CC(CF)(CF)C(O)(COc1ccc(Cl)cc1)c1cncs1 (centres unmarked) [Compound 9] | 95 | logP 2.94^[a]; [M + H]^+ = 348 | 
7 | OC(Cc1ccccc1Cl)(c1cncs1)C1(F)CC1 (centres unmarked) [Compound 11] | 70 | logP 2.64^[a]; [M + H]^+ = 298 | efficacy [2]: 78%
8 | CC(C)(C)C(O)(COc1ccc(Cl)cc1)c1cnc(S)s1 (centres unmarked) [Compound 12] | 98 |  | chromatographic logP [1]: 3.06; efficacy [2]: 89%; efficacy (Leptosphaeria nodorum): 86%
9 | OC(COc1ccc(Cl)cc1)(c1cncs1)C1(Cl)CC1 (centres unmarked) [Compound 16] | 78 |  | 
10 | CC(C)C(O)(COc1ccc(SC(F)(F)F)cc1)c1cncs1 (centres unmarked) [Compound 17] | 93 |  | 
11 | CC(C)(C)C(O)(CCc1ccc(Cl)cc1)Cc1cncs1 (centres unmarked) [Compound 18] | 95 |  | 
12 | CC(C)(C)C(O)(COc1ccc(-c2ccc(I)cc2)cc1)c1cncs1 (centres unmarked) [Compound 19] |  | logP 4.89^[a]; [M + H]^+ = 480 | 
13 | CC(C)(C)C(O)(COc1ccc(OC(F)(F)F)cc1)c1cncs1 (centres unmarked) [Compound 20] | 88 |  | efficacy [2]: 100%; efficacy (Leptosphaeria nodorum): 100%; efficacy (Septoria tritici): 100%; efficacy (Puccinia triticina): 100%
14 | CC(C)C(O)(COc1ccc(I)cc1)c1cncs1 (centres unmarked) [Compound 21] | 85 |  | 
15 | CC(C)C(O)(COc1ccc(Br)cc1)c1cncs1 (centres unmarked) [Compound 22] | 96 |  | 
16 | CC(C)C(O)(COc1ccc(Cl)cc1)c1cncs1 (centres unmarked) [Compound 23] | 80 |  | 
17 | CC1(C(O)(COc2ccccc2Br)c2cncs2)CC1 (centres unmarked) [Compound 24] | 83 |  | 
18 | CC1(C(O)(COc2ccc(I)cc2)c2cncs2)CCCCC1 (centres unmarked) [Compound 25] | 100 | logP 4.53^[a]; [M + H]^+ = 444 | efficacy (Septoria tritici): 86%; efficacy (Puccinia triticina): 78%
19 | CC1(C(O)(COc2cccc(I)c2)c2cncs2)CC1 (centres unmarked) [Compound 26] | 75 | logP 3.41^[a]; [M + H]^+ = 402 | 
20 | CC1(C(O)(COc2cccc(Br)c2)c2cncs2)CC1 (centres unmarked) [Compound 27] | 93 | logP 3.24^[a]; [M + H]^+ = 354, 356 | 
21 | CC(C)(C)C(O)(COc1ccc(Oc2ccc(Br)cc2)cc1)c1cncs1 (centres unmarked) [Compound 28] | 95 | logP 4.66^[a]; [M + H]^+ = 448/450 | 
22 | CC(C)(C)C(O)(COc1ccc(Oc2ccc(Cl)cc2)cc1)c1cncs1 (centres unmarked) [Compound 29] | 98 | logP 4.50^[a]; [M + H]^+ = 404 | 

Row | SMILES | efficacy (Sphaerotheca fuliginea) [%] | logP [1] | further results
23 | CC(C)(C)C(O)(COc1ccc(-c2ccc(C(F)(F)F)cc2)cc1)c1cncs1 (centres unmarked) [Compound 30] |  | logP 4.62^[a]; [M + H]^+ = 422 | 
24 | CC(=O)c1ccc(-c2ccc(OCC(O)(c3cncs3)C(C)(C)C)cc2)cc1 (centres unmarked) [Compound 31] | 100 |  | 
25 | CC(C)(C)C(O)(COc1ccc(Oc2ccc(C(F)(F)F)cc2)cc1)c1cncs1 (centres unmarked) [Compound 32] | 96 | logP 4.63^[a]; [M + H]^+ = 438 | 
26 | CC1(C(O)(COc2ccc(Cl)cc2)c2cncs2)CCCCC1 (centres unmarked) [Compound 34] | 99 | logP 4.25^[a]; [M + H]^+ = 352 | 
27 | CC(C)(C)C(O)(COc1ccc(-c2ccc(Cl)cc2)cc1)c1cncs1 (centres unmarked) [Compound 36] | 98 | logP 4.55^[a]; [M + H]^+ = 388 | 
28 | CC(C)(C)C(O)(COc1ccc(C2CCCCC2)cc1)c1cncs1 (centres unmarked) [Compound 37] | 100 | logP 5.21^[a]; [M + H]^+ = 360 | 
29 | CC(C)(C)C(O)(COc1ccc(Oc2ccc(F)cc2)cc1)c1cncs1 (centres unmarked) [Compound 38] | 98 | logP 4.03^[a]; [M + H]^+ = 388 | 
30 | OC(Cc1cnc(I)s1)(Cc1ccccc1Cl)C1(Cl)CC1 (centres unmarked) [Compound 39] | 100 |  | efficacy [2]: 90%
31 | CC(C)(C)c1ccc(OCC(O)(c2cncs2)C(C)(C)C)cc1 (centres unmarked) [Compound 40] | 90 | logP 4.39^[a]; [M + H]^+ = 334 | 
32 | CC(C)(C)C(O)(COc1ccc(F)cc1)c1cncs1 (centres unmarked) [Compound 42] | 94 | logP 2.91^[a]; [M + H]^+ = 296 | efficacy [2]: 100%; efficacy (Puccinia triticina): 89%
33 | CC(C)(C)C(O)(COc1cccc(Oc2ccccc2)c1)c1cncs1 (centres unmarked) [Compound 43] |  | logP 3.98^[a]; [M + H]^+ = 370 | 
34 | CC1(C(O)(COc2cccc([N+](=O)[O-])c2)c2cncs2)CC1 (centres unmarked) [Compound 45] |  | logP 2.62^[a]; [M + H]^+ = 321 | 
35 | CC(CF)(CF)C(O)(Cc1ccccc1Cl)c1cncs1 (centres unmarked) [Compound 46] |  | logP 2.78^[a]; [M + H]^+ = 332 | 
36 | CC(CF)(CF)C(O)(Cc1ccccc1F)c1cncs1 (centres unmarked) [Compound 47] |  | logP 2.47^[a]; [M + H]^+ = 316 | 
37 | CC(C)(C)C(O)(Cc1ccc(F)cc1)c1cncs1 (centres unmarked) [Compound 48] |  |  | chromatographic logP [1]: 2.91
38 | COc1cc(-c2ccccc2)ccc1OCC(O)(c1cncs1)C(C)(C)C (centres unmarked) [Compound 49] |  | logP 4.02^[a]; [M + H]^+ = 384 | 
39 | CC(C)(C)C(O)(COc1ccc(-c2ccccc2)cc1)c1cncs1 (centres unmarked) [Compound 50] | 100 | logP 4.03^[a]; [M + H]^+ = 354 | 
40 | CC(C)(C)C(O)(COc1ccc(-c2ccc(C#N)cc2)cc1)c1cncs1 (centres unmarked) [Compound 51] | 94 | logP 3.46^[a]; [M + H]^+ = 379 | 
41 | CC(C)(C)C(O)(COc1ccc(-c2ccc(Br)cc2)cc1)c1cncs1 (centres unmarked) [Compound 52] | 100 | logP 4.71^[a]; [M + H]^+ = 432/434 | 
42 | CC(C)(/C=C/Cl)C(O)(COc1ccc(Cl)cc1)c1cncs1 (centres unmarked) [Compound 54] | 95 | logP 3.67^[a]; [M + H]^+ = 358 | 
43 | CC1(C(O)(COc2ccccc2I)c2cncs2)CC1 (centres unmarked) [Compound 55] |  | logP 3.33^[a]; [M + H]^+ = 402 | 
44 | CC(C)(C)C(O)(COc1ccc(SC(F)(F)Cl)cc1)c1cncs1 (centres unmarked) [Compound 58] |  | logP 4.23^[a]; [M + H]^+ = 394 | 

Row | SMILES | efficacy (Sphaerotheca fuliginea) [%] | logP [1] | further results
45 | OC(Cc1cnc(Cl)s1)(Cc1ccccc1F)C1(Cl)CC1 (centres unmarked) [Compound 59] |  | logP 4.21^[a]; [M + H]^+ = 346 | 
46 | CC(C)(C)C(O)(COc1ccc(Cl)cc1)Cc1cnc(Cl)s1 (centres unmarked) [Compound 61] |  | logP 4.68^[a]; [M + H]^+ = 360 | 
47 | CC(C)(C)C(O)(COc1ccc(I)cc1)Cc1cnc(Cl)s1 (centres unmarked) [Compound 62] |  | logP 5.12^[a]; [M + H]^+ = 452 | 
48 | CC(C)(C)C(O)(COc1ccc(F)cc1)Cc1cnc(Cl)s1 (centres unmarked) [Compound 63] |  | logP 4.20^[a]; [M + H]^+ = 344 | 
49 | CC(C)(C)C(O)(COc1ccc(Cl)cc1)Cc1cncs1 (centres unmarked) [Compound 64] | 100 | logP 3.49^[a]; [M + H]^+ = 326 | 
50 | CC(CF)(CF)C(O)(COc1ccc(Cl)cc1)Cc1cnc(Cl)s1 (centres unmarked) [Compound 65] |  | logP 3.94^[a]; [M + H]^+ = 397 | 
51 | CC(C)(C)C(O)(COc1ccc(F)cc1)Cc1cncs1 (centres unmarked) [Compound 66] |  | logP 3.16^[a]; [M + H]^+ = 310 | 
52 | CC(CF)(CF)C(O)(COc1ccc(Cl)cc1)Cc1cncs1 (centres unmarked) [Compound 67] | 95 | logP 3.04^[a]; [M + H]^+ = 362 | 
53 | CC(C)[Si](c1ncc(C(O)(Cc2ccccc2Cl)C2(Cl)CC2)o1)(C(C)C)C(C)C (centres unmarked) [Compound 68] |  | logP 7.18^[a]; [M + H]^+ = 455 | 
54 | OC(Cc1ccccc1Cl)(c1cnco1)C1(Cl)CC1 (centres unmarked) [Compound 69] |  | logP 2.88^[a]; [M + H]^+ = 299 | 
55 | CC(C)[Si](c1ncc(C(O)(CCc2ccc(Cl)cc2)C(C)(C)C)o1)(C(C)C)C(C)C (centres unmarked) [Compound 70] |  | logP 7.36^[a]; [M + H]^+ = 451 | 
56 | CC(C)(C)C(O)(CCc1ccc(Cl)cc1)c1cnco1 (centres unmarked) [Compound 71] |  | logP 3.45^[a]; [M + H]^+ = 294 | 
57 | CC(C)(C)C(O)(CCc1ccc(Br)cc1)c1cncs1 (centres unmarked) [Compound 72] | 100 | logP 3.69^[a]; [M + H]^+ = 354, 356 | 
58 | COc1ccc(CCC(O)(c2cncs2)C(C)(C)C)cc1 (centres unmarked) [Compound 73] | 78 | logP 2.94^[a]; [M + H]^+ = 306 | 
59 | CC(C)(C)C(O)(CCc1ccc(OC(F)(F)F)cc1)c1cncs1 (centres unmarked) [Compound 74] | 100 | logP 3.93^[a]; [M + H]^+ = 360 | 
60 | CC(C)(C)C(O)(CCc1ccc([N+](=O)[O-])cc1)c1cncs1 (centres unmarked) [Compound 75] |  | logP 2.98^[a]; [M + H]^+ = 321 | 
61 | CC(C)(C)C(O)(CCc1ccc(N)cc1)c1cncs1 (centres unmarked) [Compound 76] |  | logP 1.16; [M + H]^+ = 291 | 
62 | CC(C)(C)c1ccc(CCC(O)(c2cncs2)C(C)(C)C)cc1 (centres unmarked) [Compound 77] |  | logP 1.98^[a]; [M + H]^+ = 333 | 
63 | CCN(C)C=Nc1ccc(CCC(O)(c2cncs2)C(C)(C)C)cc1 (centres unmarked) [Compound 78] |  | logP 1.33^[a]; [M + H]^+ = 360 | 
64 | CC(C)(C)C(O)(COc1ccc(C2CCCC2)cc1)c1cncs1 (centres unmarked) [Compound 80] | 94 | logP 4.78^[a]; [M + H]^+ = 346 | 
65 | OC(COc1ccc(I)cc1)(c1cncs1)C1(C(F)(F)F)CC1 (centres unmarked) [Compound 81] |  | logP 3.59^[a]; [M + H]^+ = 456 | 
66 | OC(COc1ccc(Br)cc1)(c1cncs1)C1(C(F)(F)F)CC1 (centres unmarked) [Compound 82] |  | logP 3.43^[a]; [M + H]^+ = 408/410 | 

From US8440836B2, “Heterocyclic alkanol derivatives” (Bayer Intellectual Property GmbH, priority 2010, dated 2013)
